pIC50: −log10 of the molar value.
Key:
SCC-7 [1] = assay: Antitumor activity against mouse SCC-7 cells implanted in C3H mouse assessed as tumor growth time at 12 mg/kg, ip treated every other day 3 times in total (reference value: 2.8 +/- 0.6 day); type: functional
SCC-7 [2] = assay: Antitumor activity against mouse SCC-7 cells implanted in C3H mouse assessed as tumor growth time delay at 12 mg/kg, ip treated every other day 3 times in total; type: functional
RKO = assay: Antiproliferative activity against human RKO cells assessed as cell growth inhibition by CCK8 assay; type: functional, cell-based
A549 = assay: Antiproliferative activity against human A549 cells assessed as cell growth inhibition by CCK8 assay; type: functional, cell-based
A498 = assay: Antiproliferative activity against human A498 cells assessed as cell growth inhibition by CCK8 assay; type: functional, cell-based
SCC-7 [3] = assay: Antiproliferative activity against mouse SCC-7 cells assessed as cell growth inhibition by CCK8 assay; type: functional, cell-based
HT-29 = assay: Antiproliferative activity against human HT-29 cells assessed as cell growth inhibition by CCK8 assay; type: functional, cell-based
M21 = assay: Antiproliferative activity against human M21 cells assessed as cell growth inhibition by CCK8 assay; type: functional, cell-based
PANC-1 = assay: Antiproliferative activity against human PANC-1 cells assessed as cell growth inhibition by CCK8 assay; type: functional, cell-based
U-87 MG = assay: Antiproliferative activity against human U87 cells assessed as cell growth inhibition by CCK8 assay; type: functional, cell-based, U-87MG ATCC
IMR-32 = assay: Antiproliferative activity against human IMR-32 cells assessed as cell growth inhibition by CCK8 assay; type: functional, cell-based
UMSCC22B = assay: Antiproliferative activity against human UMSCC22B cells assessed as cell growth inhibition by CCK8 assay; type: functional, cell-based
MCF7 = assay: Antiproliferative activity against human MCF7 cells assessed as cell growth inhibition by CCK8 assay; type: functional, cell-based
[4] = Terminal half life in human plasma; type: ADME, cell-free; conditions: read-out: beta t1/2
SNB-75 = assay: Antiproliferative activity against human SNB-75 cells assessed as cell growth inhibition by CCK8 assay; type: functional, cell-based

N[C@@H](CSCC(=O)N1CC([N+](=O)[O-])([N+](=O)[O-])C1)C(=O)O
Time (SCC-7 [1]): 3.9 days
Time (SCC-7 [2]): 1.1 days

O=C(CBr)N1CCC1
Time (SCC-7 [1]): 3.8 days
Time (SCC-7 [2]): 1 days

C[N+](C)(C)CC(=O)N1CC([N+](=O)[O-])([N+](=O)[O-])C1
Time (SCC-7 [1]): 3.6 days
Time (SCC-7 [2]): 0.8 days

O=C(CBr)N1CC([N+](=O)[O-])([N+](=O)[O-])C1 [NIBROZETONE]
pIC50 (RKO): 11.52
Time (SCC-7 [1]): 4.8 days
pIC50 (A549): 11.22
pIC50 (A498): 11.31
pIC50 (SCC-7 [3]): 11.74
pIC50 (HT-29): 11.47
pIC50 (M21): 11.59
pIC50 (PANC-1): 11.64
Time (SCC-7 [2]): 2 days
pIC50 (U-87 MG): 11.57
pIC50 (IMR-32): 11.29
pIC50 (UMSCC22B): 11.64
pIC50 (MCF7): 11.40
half-life [4]: 27.6 min
pIC50 (SNB-75): 11.42

— ChEMBL document CHEMBL5036323, “Discovery of RRx-001, a Myc and CD47 Downregulating Small Molecule with Tumor Targeted Cytotoxicity and Healthy Tissue Cytoprotective Properties in Clinical Development” (J Med Chem, 2021)
